# Where a name gives a salt, the structure may show the parent alone.
# Legend:
# [1] = test system: Actinoplanes Strain ATCC 31680; test: antibiotic sensitivity of Actinoplanes strain ATCC 31680; format: cell-based, Actinoplanes missouriensis
# Experimental: (§1) The methods used for the taxonomic studies of strains ATCC 31680, ATCC 31682, and ATCC 31683 are well known to those skilled in the art and in large part are methods recommended for the International Streptomyces Project (ISP), described by Shirling and Gottlieb, 1966, Intern. J. of Systematic Bacteriol. 16(3):313-340. Enzyme assays were carried out according to the methods of Blazevic and Ederer, 1975, Principles of Biochemical Tests in Diagnostic Microbiology, John Wiley and Sons. Inc., New York, and color names, abbreviations, and numbers were assigned using the ISCC-NBS method of Kelly and Judd, 1976, The ISCC-NBS Centroid Color Charts Standard Sample No. 2106, U.S. Dept. of Commerce, National Bureau of Standards, Washington D.C. Lysozyme resistance and the decomposition of casein, esculin, hypoxanthine, tyrosine, and xanthine were measured using the procedure of Berg, 1973, Appl. Microbiol. 25:665-681. Carbon utilization studies were also completed and are stored as follows: […]
# [2] = test system: Actinoplanes Strain ATCC 31683; test: antibiotic sensitivity of Actinoplanes strain ATCC 31683; format: cell-based, Actinoplanes missouriensis
# Experimental: as §1
# [3] = test system: Actinoplanes Strain ATCC 31682; test: antibiotic sensitivity of Actinoplanes strain ATCC 31682; format: cell-based, Actinoplanes missouriensis
# Experimental: as §1
# [4] = bioautography of aglycone formation during hydrolysis; format: cell-based; conditions: during hydrolysis of A-4696 complex and individual factors
# Description: An additional factor, designated as E1, can also be isolated from the antibiotic A-4696 complex and may represent a degradation product. The chemical, physical, and biological properties of the factors indicate that they are new antibiotics and, except possibly for factor E1, that they are composed of the same peptide core (aglycone) and amino sugar, and varying amounts of glucose, mannose, and rhamnose. […] It is possible that the site of antimicrobial activity of the A-4696 complex and individual factors resides in the peptide pseudo-aglycone, with the factors being substantially differentiated by differences in their neutral sugar composition. The attached sugars may function chiefly to modulate solubility and other important pharmacodynamic parameters.
Structure (SMILES),Antibiotic sensitivity ([1]; 30 μg.),Antibiotic sensitivity ([2]; 30 μg.),Antibiotic sensitivity ([3]; 30 μg.),also measured
CN(C)C1C(=O)C(C(N)=O)=C(O)C2(O)C(=O)C3=C(O)c4c(O)cccc4C(C)(O)C3CC12 (stereo not shown) [Tetracycline],Sensitive,Sensitive,Sensitive,–
O=C(N[C@H](CO)[C@H](O)c1ccc([N+](=O)[O-])cc1)C(Cl)Cl [Chloromycetin],Sensitive,Sensitive,Sensitive,–
CO[C@H]1/C=C/O[C@@]2(C)Oc3c(C)c(O)c4c(O)c(c(/C=N/N5CCN(C)CC5)c(O)c4c3C2=O)NC(=O)/C(C)=C\C=C\[C@H](C)[C@H](O)[C@@H](C)[C@@H](O)[C@@H](C)[C@H](OC(C)=O)[C@@H]1C [Rifampin],–,–,–,Antibiotic sensitivity ([1]; 5 μg.): Sensitive; Antibiotic sensitivity ([2]; 5 μg.): Sensitive; Antibiotic sensitivity ([3]; 5 μg.): Sensitive
COC(=O)C1NC(=O)C2NC(=O)C(NC(=O)C3NC(=O)C4NC(=O)C(Cc5ccc(cc5)Oc5cc3cc(c5O)Oc3ccc(cc3Cl)C2OC2CC(N)C(O)C(C)O2)NC(=O)C(N)c2ccc(O)c(c2)Oc2cc4cc(O)c2C)c2ccc(O)c(c2)-c2c(O)cc(O)cc21 (stereo not shown) [pseudo-aglycone],–,–,–,antimicrobial activity (bioautography) [4]: antimicrobially active
CC(=O)OCC1=C(C(=O)O)N2C(=O)[C@@H](NC(=O)Cc3cccs3)[C@H]2SC1 [Cephalothin (sodium)],Sensitive,Sensitive,Sensitive,–
CO[C@@H]1[C@@H](OC(N)=O)[C@@H](O)[C@H](Oc2ccc3c(O)c(NC(=O)c4ccc(O)c(CC=C(C)C)c4)c(=O)oc3c2C)OC1(C)C [Novobiocin],Sensitive,Sensitive,Sensitive,–
CN[C@H](CC(C)C)C(=O)N[C@H]1C(=O)N[C@@H](CC(N)=O)C(=O)N[C@H]2C(=O)N[C@H]3C(=O)N[C@H](C(=O)N[C@H](C(=O)O)c4cc(O)cc(O)c4-c4cc3ccc4O)[C@H](O)c3ccc(c(Cl)c3)Oc3cc2cc(c3O[C@@H]2O[C@H](CO)[C@@H](O)[C@H](O)[C@H]2O[C@H]2C[C@](C)(N)[C@H](O)[C@H](C)O2)Oc2ccc(cc2Cl)[C@H]1O [Vancomycin HCl],Sensitive,Sensitive,Sensitive,–
CCC(=O)O[C@H]1[C@H](O[C@@H]2[C@@H](C)[C@H](O[C@H]3C[C@@](C)(OC)[C@@H](O)[C@H](C)O3)[C@@H](C)C(=O)O[C@H](CC)[C@@](C)(O)[C@H](O)[C@@H](C)C(=O)[C@H](C)C[C@@]2(C)O)O[C@H](C)C[C@@H]1N(C)C [Erythromycin (estolate)],–,–,–,Antibiotic sensitivity ([1]; 15 μg.): Sensitive; Antibiotic sensitivity ([2]; 15 μg.): Sensitive; Antibiotic sensitivity ([3]; 15 μg.): Sensitive
CC1(C)S[C@@H]2[C@H](NC(=O)Cc3ccccc3)C(=O)N2[C@H]1C(=O)O [Penicillin (G)],–,–,–,Antibiotic sensitivity ([1]; 10 units): Sensitive; Antibiotic sensitivity ([2]; 10 units): Sensitive; Antibiotic sensitivity ([3]; 10 units): Sensitive
[H]/N=C(/N)N[C@H]1[C@H](O)[C@@H](O)[C@H](O[C@@H]2O[C@@H](C)[C@](O)(C=O)[C@H]2O[C@@H]2O[C@@H](CO)[C@H](O)[C@@H](O)[C@@H]2NC)[C@@H](N/C(N)=N\[H])[C@@H]1O [Streptomycin],–,–,–,Antibiotic sensitivity ([1]; 10 μg.): Sensitive; Antibiotic sensitivity ([2]; 10 μg.): Sensitive; Antibiotic sensitivity ([3]; 10 μg.): Sensitive

# — US4375513A, “Biologically pure culture of Actinoplanes missouriensis” (Eli Lilly and Company, priority 1981, dated 1983)
